A value given as a limit tells only on which side of the number the result lay.

In a melting point compilation (Tetko et al.; mined from patent text by program, amines drawn as free bases though some values may be those of a salt) one finds melting point data, which are given here for 86 compounds.

On to `O=C1NCc2c(O)nc3ccccc3c21`, for which the melting point is 245 to 246 °C. In the case of `CNc1nnc(-c2ccccc2)c(=O)n1NC`, the melting point is 150 to 151 °C. Turning to `CCCCCCCCOC(=O)c1ccc(C(=O)O)cc1`, the melting point worked out at 113 °C. In the case of `O=C(O)Cc1nn(CC(=S)Nc2cc(C(F)(F)F)ccc2Br)c(=O)c2ccccc12` it was 176 to 177 °C; in that of `Cc1ccc(C(=O)Nc2c(NC(=O)CN3CCN(c4ccccc4)CC3)ccc3c2C(=O)c2ccccc2C3=O)cc1`, 270 to 271 °C. In the case of `COC1=C(OC)C(=O)C(CCCCCCCCCC(=O)N[C@H](CCC(=O)OCc2ccccc2)C(N)=O)=C(C)C1=O` it was 83 to 85 °C; in that of `O=C1c2ccccc2C(=O)N1OS(=O)(=O)c1ccccc1`, 186 °C; in that of `COC(=O)c1sccc1-c1cc2c(cc1C)C(C)(C)CCC2(C)C`, 89 to 90 °C. `CCCC(=O)Nc1nc(=O)n(C2OC(C)C(O)C2O)cc1F` (stereo unspecified): the melting point is 156 to 157 °C. Regarding `c1ccc(Cc2ncc(-c3cnc(-c4ccccc4)nc3)[nH]2)cc1`, the melting point amounted to 235 °C. The value for `CCN1C(=O)Cc2ccc(OC(=O)CCl)cc21` was 114 to 116 °C. The value for `CC1(c2ccc3cc(C(O)c4cccnc4)ccc3c2)OCCO1` (stereo unspecified) was 154 to 156 °C; that for `CC(=O)Nc1ccc(SCC(=O)NCC(=O)N(C)c2ccc(Cl)c(COc3cccc4ccc(C)nc34)c2Cl)cc1` was 179 to 180 °C. Turning to `N#Cc1c(Cl)nc2ccc(S(=O)(=O)Cl)cc2c1Cl`, the melting point was in the range of 168 to 171 °C. The value for `N#Cc1cc(N)n(-c2c(Cl)cc(-c3ccc(C(F)(F)F)cc3)cc2Cl)n1` was 195 to 199 °C; that for `CCOc1cc2c(cc1O[Si](C)(C)C(C)(C)C)C(=O)CC1C2CCC2(C)C(O[Si](C)(C)C(C)(C)C)CCC12` (stereo unspecified) was 150 to 151 °C. Consider `Oc1nnc(Cl)cc1N1CCNCC1`, for which the melting point was 35 °C. In the case of `COCCNC(=O)c1cc(F)cc(-c2cccc3cc(Cc4ccc(F)c(Cl)c4)sc23)c1` it was 108 to 109 °C; in that of `CCOC(=O)c1cn(C2CC2)c2nc(N3CCC(N)C3)c(F)cc2c1=O` (stereo unspecified), 144 to 146 °C.

For the compound `CC1(C)[C@@H]2[C@H]1[C@@H](O)O[C@H]2C(Cl)(Cl)Cl`, the melting point was 100 to 105 °C. The value for `CCOC(=O)c1cc(=O)c2cc(N3CCOCC3)c(=O)ccc2n1C` was 170 to 172 °C; that for `COc1cccc(CSc2c(O)cc(-c3ccccc3)oc2=O)c1` was 134 to 136 °C; that for `CS(=O)(=O)c1c(F)cc(C2=C(c3ccccc3)C(=O)OC2)cc1F` was 204 °C.

`C=C(C)COc1ccc(Cl)cc1CN(CC)c1ccc(C(=O)O)nn1` registered a melting point of 130 to 131 °C. In turn, `COC(=O)NNS(=O)(=O)c1ccccc1` had a melting point of 149 to 154 °C. The value for `Cc1ccnc(CN(C(=O)C(C)Cl)c2ccccc2)n1` (stereo unspecified) was 110 °C; that for `Cc1cc(NC(=O)NCc2ccc3c(c2)CN(C2CCC(=O)NC2=O)C3=O)ccc1O` (stereo unspecified) was 210 to 212 °C. Consider `CCOC(=O)C(C)Cc1ccc(-n2c(C)nn(-c3ccc(C#N)cc3)c2=O)cc1` (stereo unspecified), for which the melting point was in the range of 124 to 128 °C.

For the compound `Cc1ccc(C(=O)NCCO)cc1-n1c(C)cc(OCc2ccccc2CNC(=O)Nc2cc(C(C)(C)C)nn2-c2cccc(OCCO)c2)c(Cl)c1=O`, the melting point fell in the range of 162 to 163 °C. The value for `Cc1nc2ccsc2c(=O)n1-c1ccccc1Cl` was 118 to 121 °C; that for `COc1c(N2CCNC(CF)(CF)C2)c(F)cc2c(=O)c(C(=O)O)cn(C3CC3F)c12` (stereo unspecified) was 164 to 166 °C.

`CC(C)(c1ccc(N)c([N+](=O)[O-])c1)c1ccc(N)c([N+](=O)[O-])c1`: the melting point is 207 to 210 °C. The value for `O=C1CCCN1c1cccc2cccnc12` was 118 to 120 °C; that for `COc1ccc2c(c1)NC(=O)C(CCCN1CCN(c3ccc(F)cc3)CC1)O2` (stereo unspecified) was 153 to 154 °C. The value for `COc1cc(C(=O)OCC2(N(C)C)CCCc3sccc32)cc(OC)c1OC` (stereo unspecified) was 82 to 83 °C; that for `COCOc1cc(C(=O)O)ccc1-c1ccc(-c2ccccc2)c(-c2ccc3c(c2)C(C)(C)CCC3(C)C)c1` was 122 °C; that for `COc1cc(OC)nc(NC(=O)NS(=O)(=O)Oc2ccccc2-c2csnn2)n1` was 173 to 175 °C. As to `O=C(c1nc(-c2ccccc2)nc2ccccc12)N1CCC(CCO)CC1`, the melting point was 146 °C.

Turning to `Cc1cc(C)cc(NCc2ccc3nc(NCCCN4CCOCC4)n(Cc4nc(C)ccc4O)c3c2)c1`, the melting point came to 199 °C. `CC(=O)NCCc1cn(S(=O)(=O)c2ccc(C)cc2)c2ccc(O)cc12`: the melting point fell in the range of 173 to 174 °C. Compound `O=C(Nc1ccc(CN2CCCCC2)cc1)c1cccc(OCc2ccccc2)c1` registered a melting point of 137 to 138 °C. The value for `CCn1cnc2c(C#N)nc(Cl)cc21` was 138 °C; that for `CCc1nnc2ccc(-c3cccc(C(F)(F)F)c3)nn12` was 183 to 185 °C; that for `COc1ccccc1-n1c(-c2ccc(C=C(C#N)C#N)s2)ccc1-c1ccc(C(C#N)=C(C#N)C#N)s1` was > 300 °C. In the case of `Cc1ccccc1Oc1cccc2c1OC(=O)C2N1C(=O)c2ccccc2C1=O` (stereo unspecified) it was 168 to 170 °C; in that of `CCOC(=O)C(=CNc1ccnn1Cc1ccco1)C(=O)c1ccccc1`, 75 to 77 °C; in that of `CCCCc1ncc(/C=C2\C(=O)N(CC(=O)OCC)c3c(OC)cccc32)n1Cc1ccc(C(=O)OC)cc1`, 157 to 158 °C. On to `O=C(Nc1ccccc1)c1nc(-c2ccc(Cl)cc2Cl)c(-c2ccc(Cl)cc2)s1`, for which the melting point was 167 to 168 °C. In the case of `CCC(CC)c1cccc2[nH]c(=O)n(C)c12` it was 130 to 132 °C. In the case of `CC(=O)c1cc(-c2ccc(S(C)(=O)=O)cc2)n(-c2ccc(F)cc2)n1` it was 207 to 209 °C; in that of `COCc1cc2c(c3c1[nH]c1ccc(O)cc13)C(=O)N(CCN(C)C)C2=O`, 235 to 237 °C. As to `COc1ccc(/C=C/C(=O)Nc2ccccc2C(=O)OCC(=O)OC(C)(C)C)cc1OC`, the melting point is 116 to 118 °C. In the case of `c1cc(-c2ccncn2)cc(-n2cnc3cc(-c4ccon4)ccc32)c1` it was 214 to 215 °C; in that of `CC(C)CC(=O)N[C@H]1N=C(c2ccccc2)c2ccccc2N(C)C1=O`, 83 to 102 °C; in that of `Clc1ccc2nc(-c3ccco3)c(I)n2n1`, 260 to 263 °C. In the case of `COC(=O)c1ccc(-c2nc(-c3c(F)c(F)c(F)c(F)c3F)cs2)cc1` it was 141 to 142 °C; in that of `CCCCCCCCCCCCOC(C)c1ccc(-c2ccc(C(=O)O)cc2)cc1` (single isomer, unassigned; (+)), 70.5 °C; in that of `Clc1cc2c(cc1Cl)Sc1cc(Cl)c(Cl)cc1S2`, 250 to 255 °C.

In turn, `CCCN1CCN(c2ncc3c(=O)c(C(=O)O)cn(CC)c3n2)CC1` gave a melting point of 149 °C. The value for `Cc1cnc(-c2nn(C)c(OC(F)F)c2Cl)c(F)c1` was 41 to 42 °C. In the case of `OC1(c2ccc(Cl)c(Cl)c2)c2ccccc2C2=NCCN21` (stereo unspecified) it was 203 to 205 °C; in that of `CCN1C(=O)C(C)(C)C(=O)N(C)c2cc(CN(CCn3ccc4oc(C)cc4c3=O)Cc3ccnn3C)ccc21`, 128 to 131 °C; in that of `CC1(CN(c2ccc(Cl)cc2)S(C)(=O)=O)SCCS1`, 114 to 117 °C. In the case of `CC(C)n1c2cc(C(F)(F)F)ccc2c2oc(C(=O)Cl)cc21` it was 128 to 129 °C. `OCC1C(Cl)=Cc2ccccc21` (stereo unspecified): the melting point was 104 to 105 °C. In the case of `NNC(=O)NCCSSc1ccccn1` it was 105 to 107 °C.

On to `CC1(C(=O)N2C[C@@H](O)C[C@H]2C(=O)NC2(C#N)CC2)CC1`, for which the melting point was 160 °C. The value for `O=C(CC1=C(n2nc(-c3c(-c4ccccc4)nn4ccccc34)ccc2=O)CCCC1)N1CCCC1` was 178 to 179 °C; that for `COc1cc(N2CCN(C[C@@H](O)CO)CC2)ccc1Nc1ncc2ccc(-c3cc(Cl)ccc3OC)n2n1` was 101 to 104 °C. In the case of `CC(C(=O)NC(=O)OC1CCCCC1)(c1ccccc1)c1ccccc1` it was 126 °C.

`NC[C@H]1C=Cc2cc(F)cc(-c3ccccc3Cl)c2O1` returned a melting point of 145 to 147 °C. In the case of `O=C(O)c1cn(-c2ccc(F)cc2F)c2c(F)c(F)c(F)c(F)c2c1=O` it was 250 to 252 °C. In turn, `CC1(C)CC(O)CC(C)(C)N1N=Nc1ccc([N+](=O)[O-])cc1` had a melting point of 108 to 110 °C.

Consider `CN(c1ccc(Cl)cc1[N+](=O)[O-])S(=O)(=O)c1ccc(Cl)s1`, for which the melting point lay within 85 to 86 °C. In the case of `CC(C)(C)NC(=O)NC(C)(C)C#N` it was 204 to 205 °C; in that of `Cc1cc(C)cc(NCc2ccc3nc(NC4CCN(CC(N)=O)CC4)n(Cc4nc(C)ccc4O)c3c2)c1`, 206 °C. The value for `Fc1ccc(OC(CCN2CCN(c3ccccc3)CC2)c2ccccc2)cc1` (stereo unspecified) was 80 to 82 °C; that for `COc1ccc(C2CC(c3ccc(OC)c(OC)c3)=NN2c2ccc(C(=O)O)cc2)cc1` (stereo unspecified) was 141 °C; that for `O=c1ncc(Cl)cn1CS(=O)c1ccc(Cl)cc1` (stereo unspecified) was 262 °C. The value for `COc1cc2c(cc1C(F)(F)F)N(C(=O)Nc1cc(F)cc(-c3cnccc3C)c1)CC2` was 191 to 195 °C; that for `O=[N+]([O-])c1ccccc1C=[N+]([O-])c1cccc(CO)c1` was 97 to 99 °C; that for `CC(C)(C)NS(=O)(=O)c1c(CO)nsc1OCC(F)(F)F` was 113 to 116 °C. In the case of `COc1nnc(-c2ccccc2)cc1C`, the melting point was 62 to 64 °C. In the case of `O=C(O)CCCCCCCCn1c(-c2ccccc2)c(-c2ccccc2)n(-c2ccccc2)c1=O` it was 123 to 124 °C; in that of `C[C@]12C[C@H](c3ccc(O)cc3)C3=C4CCC(=O)C=C4CC[C@H]3[C@@H]1CCC2=O`, 220 °C.

In turn, `Cc1ncnc(C)c1N` yielded a melting point of 98 to 100 °C.
